Reference: patent US20250084039A1, “4-SUBSTITUTED AMINOISOQUINOLINE DERIVATIVES” (Purdue Research Foundation, priority 2016, published 2025)
Read-outs that look alike come from different tables or passages of the source. Each block holds one compound with its values, some of them ahead of it.

Tests used:
EPHB2 = EPHB2 (Homo sapiens (Human), UniProt P29323); assay: Reaction Biology HotSpot kinase assay; assay type: biochemical; details: 500 nM compound; for inhibition at 0.5 µM: read-out: Percentage kinase inhibition EPHB2
In short: (§1)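 Phosphotransfer from [γ-33P]ATP was quantified after filter binding on P81 paper. Conditions: 20 mM HEPES pH 7.5, 10 mM MgCl2, 0.1 mM Na3VO4, 2 mM DTT, 0.02 mg/mL BSA; ATP 100 μM final; 2 h at room temperature. Compound was dosed at 500 nM.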

TIE2/TEK = TIE2/TEK (Homo sapiens (Human), UniProt Q02763); assay: Reaction Biology HotSpot kinase assay; assay type: biochemical; details: 500 nM compound; for inhibition at 0.5 µM: read-out: Percentage kinase inhibition TIE2/TEK
In short: as §1

ROS/ROS1 = ROS/ROS1 (Homo sapiens (Human), UniProt P08922); assay: Reaction Biology HotSpot kinase assay; assay type: biochemical; details: 500 nM compound; for inhibition at 0.5 µM: read-out: Percentage kinase inhibition ROS/ROS1
In short: as §1

FLT3 = FLT3 (Homo sapiens (Human), UniProt P36888); assay: Reaction Biology HotSpot kinase assay; assay type: biochemical; details: for inhibition at 0.5 µM: read-out: % inhibition of FLT3 activity
In short: (§2)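 HotSpot 33P transfer format. Enzyme, substrate and 500 nM test compound sit together for 20 min, then labelled and unlabelled ATP totalling 100 μM are added and phosphorylation proceeds for 2 h at room temperature. Products are captured on P81 cellulose paper, and activity is expressed relative to DMSO.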

PDGFRa = PDGFRa (Homo sapiens (Human), UniProt P16234); assay: Reaction Biology HotSpot kinase assay; assay type: biochemical; details: 500 nM compound; for inhibition at 0.5 µM: read-out: Percentage kinase inhibition PDGFRa
In short: as §1

BTK = BTK (Homo sapiens (Human), UniProt Q06187); assay: Reaction Biology HotSpot kinase assay; assay type: biochemical; details: 500 nM compound; for inhibition at 0.5 µM: read-out: Percentage kinase inhibition BTK
In short: as §1

YES/YES1 = YES/YES1 (Homo sapiens (Human), UniProt P07947); assay: Reaction Biology HotSpot kinase assay; assay type: biochemical; details: 500 nM compound; for inhibition at 0.5 µM: read-out: Percentage kinase inhibition YES/YES1
In short: as §1

AXL = AXL (Homo sapiens (Human), UniProt P30530); assay: Reaction Biology HotSpot kinase assay; assay type: biochemical; details: 500 nM compound; for inhibition at 0.5 µM: read-out: Percentage kinase inhibition AXL
In short: as §1

c-Met = c-Met (Homo sapiens (Human), UniProt P08581); assay: Reaction Biology HotSpot kinase assay; assay type: biochemical; details: 500 nM compound; for inhibition at 0.5 µM: read-out: Percentage kinase inhibition c-Met
In short: as §1

ERBB2/HER2 = ERBB2/HER2 (Homo sapiens (Human), UniProt P04626); assay: Reaction Biology HotSpot kinase assay; assay type: biochemical; details: 500 nM compound; for inhibition at 0.5 µM: read-out: Percentage kinase inhibition ERBB2/HER2
In short: as §1

FLT4/VEGFR3 = FLT4/VEGFR3 (Homo sapiens (Human), UniProt P35916); assay: Reaction Biology HotSpot kinase assay; assay type: biochemical; details: 500 nM compound; for inhibition at 0.5 µM: read-out: Percentage kinase inhibition FLT4/VEGFR3
In short: as §1

BRAF = BRAF (Homo sapiens (Human), UniProt P15056); assay: Reaction Biology HotSpot kinase assay; assay type: biochemical; details: 500 nM compound; for inhibition at 0.5 µM: read-out: Percentage kinase inhibition BRAF
In short: as §1

KDR/VEGFR2 = KDR/VEGFR2 (Homo sapiens (Human), UniProt P35968); assay: Reaction Biology HotSpot kinase assay; assay type: biochemical; details: 500 nM compound; for inhibition at 0.5 µM: read-out: Percentage kinase inhibition KDR/VEGFR2
In short: as §1

TRKB = TRKB (Homo sapiens (Human), UniProt Q16620); assay: Reaction Biology HotSpot kinase assay; assay type: biochemical; details: 500 nM compound; for inhibition at 0.5 µM: read-out: Percentage kinase inhibition TRKB
In short: as §1

FGFR1 = FGFR1 (Homo sapiens (Human), UniProt P11362); assay: Reaction Biology HotSpot kinase assay; assay type: biochemical; details: 500 nM compound; for inhibition at 0.5 µM: read-out: Percentage kinase inhibition FGFR1
In short: as §2

EPHA5 = EPHA5 (Homo sapiens (Human), UniProt P54756); assay: Reaction Biology HotSpot kinase assay; assay type: biochemical; details: 500 nM compound; for inhibition at 0.5 µM: read-out: Percentage kinase inhibition EPHA5
In short: as §1

PKCa = PKCa (Homo sapiens (Human), UniProt P17252); assay: Reaction Biology HotSpot kinase assay; assay type: biochemical; details: 500 nM compound; for inhibition at 0.5 µM: read-out: Percentage kinase inhibition PKCa
In short: as §1

ALK = ALK (Homo sapiens (Human), UniProt Q9UM73); assay: Reaction Biology HotSpot kinase assay; assay type: biochemical; details: 500 nM compound; for inhibition at 0.5 µM: read-out: Percentage kinase inhibition ALK
In short: as §1

EGFR = EGFR (Homo sapiens (Human), UniProt P00533); assay: Reaction Biology HotSpot kinase assay; assay type: biochemical; details: 500 nM compound; for inhibition at 0.5 µM: read-out: Percentage kinase inhibition EGFR
In short: as §1

FGR = FGR (Homo sapiens (Human), UniProt P09769); assay: Reaction Biology HotSpot kinase assay; assay type: biochemical; details: 500 nM compound; for inhibition at 0.5 µM: read-out: Percentage kinase inhibition FGR
In short: as §1

FLT1/VEGFR1 = FLT1/VEGFR1 (Homo sapiens (Human), UniProt P17948); assay: Reaction Biology HotSpot kinase assay; assay type: biochemical; details: 500 nM compound; for inhibition at 0.5 µM: read-out: Percentage kinase inhibition FLT1/VEGFR1
In short: as §1

MOLM14 = assay: IC50 determination (proliferation assay, CellTiter-Blue); assay type: cell-based
In short: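 MOLM14 and MV4-11 cells seeded about 18 h before compound addition (DMSO-diluted), then 72 h exposure.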

K562 = assay: IC50 proliferation assay (Alamar Blue, 72 h); assay type: cell-based
MV4-11 = assay: IC50 proliferation assay (Alamar Blue, 72 h); assay type: cell-based; details: read-out: IC50 (proliferation inhibition) Cell line - MV4-11
In short: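 Cells seeded ~18 h before treatment with semi-serial compound dilutions made in DMSO then growth medium. After 72 h exposure, Alamar Blue added and read following 4 h further at 37 °C; IC50 for proliferation inhibition.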

[1] = Homo sapiens, K562, 72 h, read-out: IC50 (proliferation inhibition) Cell line - K562
[2] = Homo sapiens, K562, Table 18, read-out: Inhibition of proliferation of K562 cell lines (CML)

Chain of ERBB2/HER2 (P04626 23-1255): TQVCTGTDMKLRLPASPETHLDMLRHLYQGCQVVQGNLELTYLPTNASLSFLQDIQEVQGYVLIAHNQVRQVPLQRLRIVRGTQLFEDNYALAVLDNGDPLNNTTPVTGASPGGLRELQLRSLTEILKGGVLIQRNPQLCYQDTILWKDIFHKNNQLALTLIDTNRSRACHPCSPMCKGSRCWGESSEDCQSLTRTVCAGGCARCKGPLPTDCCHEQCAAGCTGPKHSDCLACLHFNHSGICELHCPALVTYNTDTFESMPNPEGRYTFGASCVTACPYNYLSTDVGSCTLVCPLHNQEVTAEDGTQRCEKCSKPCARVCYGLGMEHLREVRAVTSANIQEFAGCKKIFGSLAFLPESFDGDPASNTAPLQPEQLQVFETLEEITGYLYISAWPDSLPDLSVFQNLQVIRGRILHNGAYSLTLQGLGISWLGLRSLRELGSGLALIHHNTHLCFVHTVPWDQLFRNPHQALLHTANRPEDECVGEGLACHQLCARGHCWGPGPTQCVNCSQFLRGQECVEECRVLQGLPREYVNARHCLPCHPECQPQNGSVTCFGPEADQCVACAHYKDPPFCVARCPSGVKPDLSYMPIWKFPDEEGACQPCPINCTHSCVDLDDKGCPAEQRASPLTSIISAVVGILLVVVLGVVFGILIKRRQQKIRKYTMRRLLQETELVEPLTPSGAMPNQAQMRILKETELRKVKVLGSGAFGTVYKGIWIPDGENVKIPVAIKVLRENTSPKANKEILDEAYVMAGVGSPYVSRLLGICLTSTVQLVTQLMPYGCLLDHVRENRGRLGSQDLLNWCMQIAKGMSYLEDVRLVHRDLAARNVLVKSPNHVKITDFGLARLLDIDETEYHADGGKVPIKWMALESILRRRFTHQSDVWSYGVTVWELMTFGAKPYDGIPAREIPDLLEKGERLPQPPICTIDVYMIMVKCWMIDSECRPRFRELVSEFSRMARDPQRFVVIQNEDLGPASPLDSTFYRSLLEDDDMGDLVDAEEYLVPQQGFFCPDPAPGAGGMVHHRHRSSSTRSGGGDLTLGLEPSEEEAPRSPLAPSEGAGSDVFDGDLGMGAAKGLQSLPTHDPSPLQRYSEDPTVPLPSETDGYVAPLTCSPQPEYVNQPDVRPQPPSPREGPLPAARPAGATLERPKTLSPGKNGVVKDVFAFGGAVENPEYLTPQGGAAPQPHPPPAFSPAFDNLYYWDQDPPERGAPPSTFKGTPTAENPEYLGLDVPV
Chain of FGFR1 (P11362 22-822): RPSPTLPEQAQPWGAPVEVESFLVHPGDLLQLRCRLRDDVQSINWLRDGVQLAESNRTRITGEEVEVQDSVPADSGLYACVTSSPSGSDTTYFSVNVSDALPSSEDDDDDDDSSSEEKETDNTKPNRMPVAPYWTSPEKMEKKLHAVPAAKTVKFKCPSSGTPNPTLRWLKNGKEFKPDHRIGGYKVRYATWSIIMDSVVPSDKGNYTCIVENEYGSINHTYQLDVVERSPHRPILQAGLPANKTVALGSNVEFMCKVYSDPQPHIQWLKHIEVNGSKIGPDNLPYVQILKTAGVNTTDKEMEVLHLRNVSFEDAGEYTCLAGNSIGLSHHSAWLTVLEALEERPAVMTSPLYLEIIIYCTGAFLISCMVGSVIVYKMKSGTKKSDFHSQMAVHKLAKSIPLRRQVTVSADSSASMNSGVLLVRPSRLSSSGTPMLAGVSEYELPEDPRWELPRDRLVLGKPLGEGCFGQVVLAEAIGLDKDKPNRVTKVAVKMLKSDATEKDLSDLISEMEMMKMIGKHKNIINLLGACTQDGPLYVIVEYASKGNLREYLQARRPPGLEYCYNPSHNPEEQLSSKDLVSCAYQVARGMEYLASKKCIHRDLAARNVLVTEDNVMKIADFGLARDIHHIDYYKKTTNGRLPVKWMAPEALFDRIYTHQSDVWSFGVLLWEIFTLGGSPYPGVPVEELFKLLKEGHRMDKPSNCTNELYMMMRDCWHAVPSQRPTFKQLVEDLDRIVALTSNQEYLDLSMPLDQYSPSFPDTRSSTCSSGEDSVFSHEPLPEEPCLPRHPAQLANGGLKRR
Chain of FGR (P09769 whole entry): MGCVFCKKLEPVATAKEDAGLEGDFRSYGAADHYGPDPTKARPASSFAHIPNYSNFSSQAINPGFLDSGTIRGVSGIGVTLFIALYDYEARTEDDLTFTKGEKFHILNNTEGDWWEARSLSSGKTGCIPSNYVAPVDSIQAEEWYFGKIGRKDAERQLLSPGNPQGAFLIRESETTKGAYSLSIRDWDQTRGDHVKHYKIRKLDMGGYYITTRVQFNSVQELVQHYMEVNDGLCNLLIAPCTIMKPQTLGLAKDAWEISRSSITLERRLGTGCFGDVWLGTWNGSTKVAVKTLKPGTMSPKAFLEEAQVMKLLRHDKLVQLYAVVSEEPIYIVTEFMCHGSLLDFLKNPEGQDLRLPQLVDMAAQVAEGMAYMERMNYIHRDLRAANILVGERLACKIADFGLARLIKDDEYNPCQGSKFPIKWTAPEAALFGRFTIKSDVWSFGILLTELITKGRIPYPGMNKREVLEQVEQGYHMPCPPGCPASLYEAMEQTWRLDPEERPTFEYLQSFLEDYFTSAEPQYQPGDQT
Chain of YES/YES1 (P07947 whole entry): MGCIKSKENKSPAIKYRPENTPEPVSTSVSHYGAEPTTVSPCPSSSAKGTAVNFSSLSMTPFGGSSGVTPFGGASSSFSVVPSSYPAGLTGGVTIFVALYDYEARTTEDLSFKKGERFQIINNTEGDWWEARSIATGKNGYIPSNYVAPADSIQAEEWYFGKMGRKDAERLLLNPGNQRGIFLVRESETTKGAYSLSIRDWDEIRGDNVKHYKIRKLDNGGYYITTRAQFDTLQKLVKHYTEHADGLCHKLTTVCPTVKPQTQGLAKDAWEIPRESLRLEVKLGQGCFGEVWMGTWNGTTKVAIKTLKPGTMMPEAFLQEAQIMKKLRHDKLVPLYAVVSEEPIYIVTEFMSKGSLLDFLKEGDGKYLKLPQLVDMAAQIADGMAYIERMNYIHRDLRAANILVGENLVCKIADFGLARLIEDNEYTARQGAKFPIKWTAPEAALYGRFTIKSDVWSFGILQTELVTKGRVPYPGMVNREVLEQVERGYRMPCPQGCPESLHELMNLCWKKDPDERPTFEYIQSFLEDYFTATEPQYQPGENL
Chain of FLT4/VEGFR3 (P35916 25-1363): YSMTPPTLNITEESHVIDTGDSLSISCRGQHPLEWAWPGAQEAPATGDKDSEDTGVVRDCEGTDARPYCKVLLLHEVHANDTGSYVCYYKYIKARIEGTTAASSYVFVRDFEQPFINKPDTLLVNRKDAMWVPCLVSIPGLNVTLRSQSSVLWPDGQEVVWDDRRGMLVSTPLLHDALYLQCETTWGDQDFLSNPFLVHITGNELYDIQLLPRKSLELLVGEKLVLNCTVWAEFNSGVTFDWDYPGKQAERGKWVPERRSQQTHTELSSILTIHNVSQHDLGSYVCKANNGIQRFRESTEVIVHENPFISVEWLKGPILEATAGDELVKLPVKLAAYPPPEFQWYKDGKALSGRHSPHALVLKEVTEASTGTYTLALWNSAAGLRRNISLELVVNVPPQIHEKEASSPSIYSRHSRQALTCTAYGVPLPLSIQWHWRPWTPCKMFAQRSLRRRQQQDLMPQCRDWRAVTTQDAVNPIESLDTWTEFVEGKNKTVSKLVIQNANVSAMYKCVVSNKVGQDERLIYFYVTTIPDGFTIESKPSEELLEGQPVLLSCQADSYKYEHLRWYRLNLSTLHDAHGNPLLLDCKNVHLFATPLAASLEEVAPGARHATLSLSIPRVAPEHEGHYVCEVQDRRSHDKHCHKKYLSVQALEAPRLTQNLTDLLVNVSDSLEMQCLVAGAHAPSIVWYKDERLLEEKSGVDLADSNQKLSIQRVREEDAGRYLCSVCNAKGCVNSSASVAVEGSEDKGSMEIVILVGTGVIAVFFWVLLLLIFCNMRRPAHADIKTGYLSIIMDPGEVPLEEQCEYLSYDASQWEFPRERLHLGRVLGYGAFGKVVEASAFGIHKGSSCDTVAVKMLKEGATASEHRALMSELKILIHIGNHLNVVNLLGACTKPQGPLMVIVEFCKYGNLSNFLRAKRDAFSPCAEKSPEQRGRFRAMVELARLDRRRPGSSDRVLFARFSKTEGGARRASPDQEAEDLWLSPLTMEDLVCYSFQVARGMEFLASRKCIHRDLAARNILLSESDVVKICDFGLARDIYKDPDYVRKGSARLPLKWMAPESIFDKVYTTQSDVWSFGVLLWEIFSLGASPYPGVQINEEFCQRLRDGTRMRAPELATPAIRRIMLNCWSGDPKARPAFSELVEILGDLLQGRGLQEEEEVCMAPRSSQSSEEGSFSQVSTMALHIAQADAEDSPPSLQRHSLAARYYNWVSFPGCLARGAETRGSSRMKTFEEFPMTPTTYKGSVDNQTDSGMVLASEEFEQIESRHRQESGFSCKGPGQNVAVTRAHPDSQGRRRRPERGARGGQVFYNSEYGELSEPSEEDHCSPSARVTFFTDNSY
Chain of BTK (Q06187 whole entry): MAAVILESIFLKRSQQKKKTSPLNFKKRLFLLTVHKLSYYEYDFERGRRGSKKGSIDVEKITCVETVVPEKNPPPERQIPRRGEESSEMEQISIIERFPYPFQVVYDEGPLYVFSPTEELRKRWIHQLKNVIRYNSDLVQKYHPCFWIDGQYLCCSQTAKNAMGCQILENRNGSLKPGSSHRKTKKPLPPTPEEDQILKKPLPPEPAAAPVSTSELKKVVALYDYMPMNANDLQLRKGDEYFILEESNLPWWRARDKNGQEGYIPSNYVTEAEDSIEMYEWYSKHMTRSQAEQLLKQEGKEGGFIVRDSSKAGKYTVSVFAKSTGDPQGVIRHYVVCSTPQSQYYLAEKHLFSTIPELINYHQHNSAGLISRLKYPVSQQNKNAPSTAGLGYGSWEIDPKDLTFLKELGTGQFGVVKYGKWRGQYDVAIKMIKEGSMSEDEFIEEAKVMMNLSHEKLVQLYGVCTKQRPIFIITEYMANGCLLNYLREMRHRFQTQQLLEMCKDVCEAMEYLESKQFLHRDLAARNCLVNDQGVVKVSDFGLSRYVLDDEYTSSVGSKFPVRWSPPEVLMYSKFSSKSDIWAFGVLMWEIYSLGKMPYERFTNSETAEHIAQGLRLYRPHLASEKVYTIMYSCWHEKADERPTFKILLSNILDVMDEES

Percentage kinase inhibition EPHB2 (EPHB2): 5%
Percentage kinase inhibition TIE2/TEK (TIE2/TEK): 8%
Percentage kinase inhibition ROS/ROS1 (ROS/ROS1): 15%
% inhibition of FLT3 activity (FLT3; 500 nM compound): 66%
Percentage kinase inhibition PDGFRa (PDGFRa): 48%
Percentage kinase inhibition BTK (BTK): 5%
Percentage kinase inhibition YES/YES1 (YES/YES1): 13%
Percentage kinase inhibition AXL (AXL): 0%
Percentage kinase inhibition c-Met (c-Met): 4%
Percentage kinase inhibition ERBB2/HER2 (ERBB2/HER2): 0%
Percentage kinase inhibition FLT4/VEGFR3 (FLT4/VEGFR3): 10%
Percentage kinase inhibition BRAF (BRAF): 3%
Percentage kinase inhibition KDR/VEGFR2 (KDR/VEGFR2): 9%
Percentage kinase inhibition TRKB (TRKB): 40%
Percentage kinase inhibition FGFR1 (FGFR1): 11%
Percentage kinase inhibition EPHA5 (EPHA5): 4%
Percentage kinase inhibition PKCa (PKCa): 3%
Percentage kinase inhibition ALK (ALK): 7%
Percentage kinase inhibition EGFR (EGFR): 0%
Percentage kinase inhibition FGR (FGR): 6%
Percentage kinase inhibition FLT1/VEGFR1 (FLT1/VEGFR1): 0%
IC50 (MOLM14): 102 ± 11 nM
IC50 (K562; 72 h, read-out: IC50 (proliferation inhibition) Cell line - K562): 5060 nM
IC50 (K562; Table 18, read-out: Inhibition of proliferation of K562 cell lines (CML)): 5057 ± 0.45 nM
IC50 (MV4-11; 72 h): 71 nM
Compound: CN(C)CC(O)CNC(=O)c1ccc(C#Cc2c(N)ncc3ccc(Cl)cc23)cc1 (centres unmarked) [HSM1702]

inhibition at 0.5 µM (EPHB2): 3%
inhibition at 0.5 µM (TIE2/TEK): 0%
inhibition at 0.5 µM (ROS/ROS1): 0%
inhibition at 0.5 µM (FLT3; 500 nM compound): 28%
inhibition at 0.5 µM (PDGFRa): 30%
inhibition at 0.5 µM (BTK): 0%
inhibition at 0.5 µM (YES/YES1): 0%
inhibition at 0.5 µM (AXL): 0%
inhibition at 0.5 µM (c-Met): 23%
inhibition at 0.5 µM (ERBB2/HER2): 0%
inhibition at 0.5 µM (FLT4/VEGFR3): 6%
inhibition at 0.5 µM (BRAF): 64%
inhibition at 0.5 µM (KDR/VEGFR2): 15%
inhibition at 0.5 µM (TRKB): 0%
inhibition at 0.5 µM (FGFR1): 0%
inhibition at 0.5 µM (EPHA5): 0%
inhibition at 0.5 µM (PKCa): 6%
inhibition at 0.5 µM (ALK): 1%
inhibition at 0.5 µM (EGFR): 0%
inhibition at 0.5 µM (FGR): 0%
inhibition at 0.5 µM (FLT1/VEGFR1): 3%
IC50 (MOLM14; Homo sapiens, MOLM-14): 415 ± 6.9 nM
IC50 (K562; [1]): 1100 nM
IC50 (K562; [2]): 1102 ± 0.08 nM
IC50 (MV4-11; Homo sapiens, MV4-11, 72 h): 722 nM
Compound: Cc1ccc(C(=O)Nc2ccc(CN3CCN(C)CC3)c(C(F)(F)F)c2)cc1C#Cc1cc(N)nc2ccccc12 [HSN285]

Compound: Cc1ccc(C(=O)Nc2ccc(CN3CCN(C)CC3)c(C(F)(F)F)c2)cc1C#Cc1cnc(N)c2ccccc12 [HSN334, 3-((1-aminoisoquinolin-4-yl)ethynyl)-4-methyl-N-(4-((4-methylpiperazin-1-yl)methyl)-3-(trifluoromethyl)phenyl)benzamide]
inhibition at 0.5 µM (EPHB2): 98%
inhibition at 0.5 µM (TIE2/TEK): 99%
inhibition at 0.5 µM (ROS/ROS1): 0%
% inhibition of FLT3 activity (FLT3): 100%
inhibition at 0.5 µM (FLT3): 99%
inhibition at 0.5 µM (PDGFRa): 86%
inhibition at 0.5 µM (BTK): 46%
inhibition at 0.5 µM (YES/YES1): 100%
inhibition at 0.5 µM (AXL): 5%
inhibition at 0.5 µM (c-Met): 14%
inhibition at 0.5 µM (ERBB2/HER2): 31%
inhibition at 0.5 µM (FLT4/VEGFR3): 79%
inhibition at 0.5 µM (BRAF): 96%
inhibition at 0.5 µM (KDR/VEGFR2): 94%
inhibition at 0.5 µM (TRKB): 41%
inhibition at 0.5 µM (FGFR1): 96%
inhibition at 0.5 µM (EPHA5): 97%
inhibition at 0.5 µM (PKCa): 0%
inhibition at 0.5 µM (ALK): 0%
inhibition at 0.5 µM (EGFR): 61%
inhibition at 0.5 µM (FGR): 100%
inhibition at 0.5 µM (FLT1/VEGFR1): 79%
proliferation inhibition in words, MOLM-14 (MOLM14): potent proliferation inhibitors
IC50 (MOLM14; Homo sapiens, MOLM-14): 1.61 ± 0.02 nM
IC50 (K562; [1]): 6 nM
IC50 (K562; [2]): 6.1 ± 0.1 nM
IC50 (MV4-11; Homo sapiens, MV4-11, 72 h): 1 nM
